Legend:
iNOS = settings: cited from earlier work
COX-2 [1] = settings: through decreasing the enzyme activity of COX-2; cited from earlier work
[2] = test system: nuclear factor-kappaB (NFkappaB); settings: cited from earlier work
COX-2 [3] = experiment: LPS-induced COX-2 protein expression by Western blotting in RAW 264.7 cells; assay type: cell-based, murine; settings: E coli LPS 100 ng/mL, co-treatment
Description: (§1) RAW 264.7 cells, derived from murine macrophage (American Type Culture Collection, MD, USA) were cultured in DMEM supplemented with 10% endotoxin-free, heat-inactivated fetal calf serum, 100 units/mL penicillin and 100 mcg/mL streptomycin, the culture media was changed to serum-free DMEM without phenol red on reaching cell density 2-3×10^6 cells/mL, and the cells activated by incubation in medium containing E coli LPS (100 ng/mL). Test compounds dissolved in dimethylsulfoxide were added together with the LPS. Cells treated with 0.05% DMSO acted as vehicle control.
(§2) The effects of test compounds on LPS-induced iNOS (inducible nitric oxide synthase) and COX-2 protein expressions were studied by Western blotting.

[4] = test system: PI3K/Akt and extracellular signal-regulated kinase 1/2 and p38 mitogen-activated protein kinase; settings: cited from earlier work
[5] = test system: iNOS (inducible nitric oxide synthase); experiment: LPS-induced iNOS protein expression by Western blotting in RAW 264.7 cells; assay type: cell-based, murine; settings: E coli LPS 100 ng/mL, co-treatment
Description: as §1, §2

| SMILES | protein and mRNA expression of iNOS (iNOS) | prostaglandin E(2) production (COX-2 [1]) | LPS-induced nuclear translocation of NFkappaB subunit and NFkappaB-dependent transcriptional activity [2] | effect on LPS-induced COX-2 protein expression (COX-2 [3]) | LPS-induced activation of PI3K/Akt, ERK 1/2 and p38 MAPK [4] | effect on LPS-induced iNOS protein expression [5] |
| --- | --- | --- | --- | --- | --- | --- |
| CC1=CC(=O)/C(=C/c2ccc(O)c(O)c2)O1 [4a, Inotilone] | blocked protein and mRNA expression of iNOS | inhibited prostaglandin E(2) production | reduction of LPS-induced nuclear translocation of NFkappaB subunit and the NFkappaB-dependent transcriptional activity | but not of COX-2 | inhibited LPS-induced activation of PI3K/Akt and extracellular signal-regulated kinase 1/2 and p38 mitogen-activated protein kinase | suppressed the induction of iNOS |
| COc1cc(/C=C2\OC(C)=CC2=O)ccc1O [4b, 2-(4-Hydroxy-3-methoxy-benzylidene)-5-methyl-furan-3-one] |  |  |  | slightly stimulated LPS-induced COX-2 expression |  | no effect on LPS induced iNOS protein expression |

From patent US8394852B2, “Inotilone derivatives as coherent biological response modifier (cBMR)” (Sami Labs Ltd, priority 2009, dated 2013)
